The target of this assay is T1, human MDM2 (GST-hMDM2 1-188), interaction with biotinylated-p53 (1-83) (Homo sapiens, UniProt Q00987).
T1 construct: Amino acid residues 1-188 of human MDM2 were expressed; made in house; host or cells: Escherichia coli
T1 sequence (Q00987 1-188): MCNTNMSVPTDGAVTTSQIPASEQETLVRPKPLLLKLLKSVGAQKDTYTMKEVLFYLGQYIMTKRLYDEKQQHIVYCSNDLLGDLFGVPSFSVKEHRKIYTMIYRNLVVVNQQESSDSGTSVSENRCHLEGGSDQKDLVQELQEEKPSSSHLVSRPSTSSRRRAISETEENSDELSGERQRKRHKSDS
The experiment in a line: improved HTRF assay (HTRF2 assay), inhibition of HDM2-p53 interaction. As to conditions: 0.2 nM GST-hMDM2, 0.5 nM biotinylated-p53, 100 mM KF. The class given is binding. The method, boiled down: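 GST-hMDM2 preincubated 20 min at RT with serially diluted compound, then biotinylated p53 (1-83, E. coli) added for 60 min. Detection with SA-XLent, anti-GST cryptate and KF, equilibrated >4 h; final DMSO 2%. TR-FRET read; % inhibition calculated relative to nutlin-3.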
A general note: In TR-FRET formats the signal depends on donor and acceptor labels being close together.
A word on the IC50: it is the concentration needed to halve the response being measured. A lower IC50 goes with inhibition by little substance. The molecule `CC(C)(C)S(=O)(=O)C[C@@H](C1CCC1)N1C(=O)[C@@H](CC(=O)O)O[C@H](c2cccc(Cl)c2)[C@H]1c1ccc(Cl)cc1` (single isomer, unassigned) [Example 273, 2-((2R,5R,6R)-4-((R)-2-(tert-Butylsulfonyl)-1-cyclobutylethyl)-6-(3-chlorophenyl)-5-(4-chlorophenyl)-3-oxomorpholin-2-yl)acetic acid or 2-((2S,5R,6R)-4-((R)-2-(tert-butylsulfonyl)-1-cyclobutylethyl)-6-(3-chlorophenyl)-5-(4-chlorophenyl)-3-oxomorpholin-2-yl)acetic acid] returned an IC50 of 95 nM. This lies in the double-digit nanomolar range.
With `O=C(O)C[C@H]1O[C@H](c2cccc(Cl)c2)[C@@H](c2ccc(Cl)cc2)N([C@H](CN(c2ccccc2F)S(=O)(=O)C2CC2)C(F)(F)F)C1=O` (single isomer, unassigned) [Example 274], the IC50 came out at 4 nM.
In turn, `O=C(O)C[C@H]1O[C@H](c2cccc(Cl)c2)[C@@H](c2ccc(Cl)cc2)N([C@H](CN(c2cc(F)ccc2F)S(=O)(=O)C2CC2)C2CC2)C1=O` (single isomer, unassigned) [Example 275, 2-((2R,5R,6R)-6-(3-Chlorophenyl)-5-(4-chlorophenyl)-4-((S)-1-cyclopropyl-2-(N-(2,5-difluorophenyl)cyclopropanesulfonamido)ethyl)-3-oxomorpholin-2-yl)acetic acid or 2-((2S,5R,6R)-6-(3-chlorophenyl)-5-(4-chlorophenyl)-4-((S)-1-cyclopropyl-2-(N-(2,5-difluorophenyl)cyclopropanesulfonamido)ethyl)-3-oxomorpholin-2-yl)acetic acid] showed an IC50 of under 1 nM.
`O=C(O)C[C@H]1O[C@H](c2cccc(Cl)c2)[C@@H](c2ccc(Cl)cc2)N([C@H](CN(c2cc(F)ccc2F)S(=O)(=O)C2CC2)C2CC2)C1=O` (single isomer, unassigned) [Example 276, 2-((2R,5R,6R)-6-(3-Chlorophenyl)-5-(4-chlorophenyl)-4-((S)-1-cyclopropyl-2-(N-(2,5-difluorophenyl)cyclopropanesulfonamido)ethyl)-3-oxomorpholin-2-yl)acetic acid or 2-((2S,5R,6R)-6-(3-chlorophenyl)-5-(4-chlorophenyl)-4-((S)-1-cyclopropyl-2-(N-(2,5-difluorophenyl)cyclopropanesulfonamido)ethyl)-3-oxomorpholin-2-yl)acetic acid]: the IC50 is under 1 nM.
Consider `O=C(O)C[C@H]1O[C@H](c2cccc(Cl)c2)[C@@H](c2ccc(Cl)cc2)N([C@H](CN(c2ccccc2F)S(=O)(=O)C2CC2)CC(F)(F)F)C1=O` (single isomer, unassigned) [Example 277], for which the IC50 was 106 nM.
The molecule `O=C(O)C[C@H]1O[C@H](c2cccc(Cl)c2)[C@@H](c2ccc(Cl)cc2)N([C@H](CN(c2ccccc2F)S(=O)(=O)C2CC2)CC(F)(F)F)C1=O` (single isomer, unassigned) [Example 278] returned an IC50 of 84 nM.
In turn, `O=C(O)C[C@H]1O[C@H](c2cccc(Cl)c2)[C@@H](c2ccc(Cl)cc2)N([C@H](CN(c2ccccc2F)S(=O)(=O)C2CC2)CC(F)(F)F)C1=O` (single isomer, unassigned) [Example 279] gave an IC50 of 39 nM.
`CC[C@@H](CS(=O)(=O)[C@H](C)C(C)C)N1C(=O)[C@H](CC(=O)O)O[C@H](c2cccc(Cl)c2)[C@H]1c1ccc(Cl)cc1` (single isomer, unassigned) [Example 282] yielded an IC50 of 2 nM.
With `CC[C@@H](CS(=O)(=O)[C@H](C)C(C)C)N1C(=O)[C@H](CC(=O)O)O[C@H](c2cccc(Cl)c2)[C@H]1c1ccc(Cl)cc1` (single isomer, unassigned) [Example 283] the figure was 3 nM; with `CC[C@@H](CS(=O)(=O)[C@H](C)C(C)C)N1C(=O)[C@H](CC(=O)O)O[C@H](c2cccc(Cl)c2)[C@H]1c1ccc(Cl)cc1` (single isomer, unassigned) [Example 284], 5 nM; with `CC[C@@H](CS(=O)(=O)[C@H](C)C(C)C)N1C(=O)[C@H](CC(=O)O)O[C@H](c2cccc(Cl)c2)[C@H]1c1ccc(Cl)cc1` (single isomer, unassigned) [Example 285], 9 nM.
Molecule `O=C(O)C[C@H]1O[C@H](c2cccc(Cl)c2)[C@@H](c2ccc(Cl)cc2)N([C@H](CS(=O)(=O)c2ccncc2)C2CC2)C1=O` (single isomer, unassigned) [Example 286, 2-((2R,5R,6R)-6-(3-Chlorophenyl)-5-(4-chlorophenyl)-4-((S)-1-cyclopropyl-2-(pyridin-4-ylsulfonyl)ethyl)-3-oxomorpholin-2-yl)acetic acid or 2-((2S,5R,6R)-6-(3-chlorophenyl)-5-(4-chlorophenyl)-4-((S)-1-cyclopropyl-2-(pyridin-4-ylsulfonyl)ethyl)-3-oxomorpholin-2-yl)acetic acid] showed an IC50 of 2 nM.
As for `O=C(O)C[C@H]1O[C@H](c2cccc(Cl)c2)[C@@H](c2ccc(Cl)cc2)N([C@H](CS(=O)(=O)c2ccncc2)C2CC2)C1=O` (single isomer, unassigned) [Example 287, 2-((2R,5R,6R)-6-(3-Chlorophenyl)-5-(4-chlorophenyl)-4-((S)-1-cyclopropyl-2-(pyridin-4-ylsulfonyl)ethyl)-3-oxomorpholin-2-yl)acetic acid or 2-((2S,5R,6R)-6-(3-chlorophenyl)-5-(4-chlorophenyl)-4-((S)-1-cyclopropyl-2-(pyridin-4-ylsulfonyl)ethyl)-3-oxomorpholin-2-yl)acetic acid], the IC50 was determined as 5 nM.
Molecule `CC(C)(O)CS(=O)(=O)C[C@H](C1CC1)N1C(=O)[C@@H](CC(=O)O)O[C@H](c2cccc(Cl)c2)[C@H]1c1ccc(Cl)cc1` (single isomer, unassigned) [Example 288, 2-((2R,5R,6R)-6-(3-Chlorophenyl)-5-(4-chlorophenyl)-4-((S)-1-cyclopropyl-2-((2-hydroxy-2-methylpropyl)sulfonyl)ethyl)-3-oxomorpholin-2-yl)acetic acid or 2-((2S,5R,6R)-6-(3-chlorophenyl)-5-(4-chlorophenyl)-4-((S)-1-cyclopropyl-2-((2-hydroxy-2-methylpropyl)sulfonyl)ethyl)-3-oxomorpholin-2-yl)acetic acid] registered an IC50 of under 1 nM.
With `CC(C)(O)CS(=O)(=O)C[C@H](C1CC1)N1C(=O)[C@@H](CC(=O)O)O[C@H](c2cccc(Cl)c2)[C@H]1c1ccc(Cl)cc1` (single isomer, unassigned) [Example 289, 2-((2R,5R,6R)-6-(3-Chlorophenyl)-5-(4-chlorophenyl)-4-((S)-1-cyclopropyl-2-((2-hydroxy-2-methylpropyl)sulfonyl)ethyl)-3-oxomorpholin-2-yl)acetic acid or 2-((2S,5R,6R)-6-(3-chlorophenyl)-5-(4-chlorophenyl)-4-((S)-1-cyclopropyl-2-((2-hydroxy-2-methylpropyl)sulfonyl)ethyl)-3-oxomorpholin-2-yl)acetic acid], the half-inhibitory concentration (IC50) was determined as 2 nM. This lies in the single-digit nanomolar range.
